Reference: ChEMBL document CHEMBL1201862, “PubChem BioAssay data set” (2004)
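Results reflect a 48-hour exposure of cells in 96-well plates to compound at five concentrations. GI50 is the concentration that inhibits growth by half.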 Activity calls are given as the source filed them. No stated cut-off is given here; in the data, active = GI50 up to about 1.1 µM and inactive = higher.

How the values were obtained:
Assay in all cases: NCI anticancer screen, dose series, 48 h
A498 = system: A498
A549 = system: A549
ACHN = system: ACHN
EKVX = system: EKVX
HCC 2998 = system: HCC 2998
HCT-15 = system: HCT-15
HL-60 = system: HL-60
HOP-62 = system: HOP-62
HOP-92 = system: HOP-92
HT-29 = system: HT-29
Hs-578T = system: Hs-578T
IGROV-1 = system: IGROV-1
K562 = system: K562
KM12 = system: KM12
M14 = system: M14
MCF7 = system: MCF7
MDA-MB-435 = system: MDA-MB-435
MOLT-4 = system: MOLT-4
Malme-3M = system: Malme-3M
NCI-H23 = system: NCI-H23
NCI-H460 = system: NCI-H460
NCI-H522 = system: NCI-H522
OVCAR-3 = system: OVCAR-3
OVCAR-4 = system: OVCAR-4
OVCAR-5 = system: OVCAR-5
OVCAR-8 = system: OVCAR-8
PC-3 = system: PC-3
RPMI-8226 = system: RPMI-8226
SF-268 = system: SF-268
SF-295 = system: SF-295
SF-539 = system: SF-539
SK-MEL-28 = system: SK-MEL-28
SK-MEL-2 = system: SK-MEL-2
SK-OV-3 = system: SK-OV-3
SNB-19 = system: SNB-19
SNB-75 = system: SNB-75
SR = system: SR
SW-620 = system: SW-620
TK-10 = system: TK-10
U-251 = system: U-251
UACC-257 = system: UACC-257
UACC-62 = system: UACC-62
UO-31 = system: UO-31
786-0 = system: 786-0
CAKI-1 = system: CAKI-1
CCRF-CEM = system: CCRF-CEM
COLO 205 = system: COLO 205
DU-145 = system: DU-145
LOX IMVI = system: LOX IMVI
MDA-MB-231 = system: MDA-MB-231
MDA-N = system: MDA-N
RXF 393 = system: RXF 393
SK-MEL-5 = system: SK-MEL-5
SN12C = system: SN12C
T47D = system: T47D

Measured: GI50

O=C(NC(COC(=O)C(Cc1ccccc1)NC(=O)c1ccccc1)Cc1ccccc1)c1ccccc1 (stereo not drawn)
> 50 µM: HCT-15
inactive: A498 > 50 µM | A549 > 50 µM | ACHN > 50 µM | EKVX > 50 µM | HCC 2998 > 50 µM | HL-60 > 50 µM | HOP-62 > 50 µM | HOP-92 > 50 µM | HT-29 > 50 µM | Hs-578T > 50 µM | IGROV-1 > 50 µM | K562 > 50 µM | KM12 > 50 µM | M14 > 50 µM | MCF7 > 50 µM | MDA-MB-435 > 50 µM | MOLT-4 > 50 µM | Malme-3M > 50 µM | NCI-H23 > 50 µM | NCI-H460 > 50 µM | NCI-H522 > 50 µM | OVCAR-3 > 50 µM | OVCAR-4 > 50 µM | OVCAR-5 > 50 µM | OVCAR-8 > 50 µM | PC-3 > 50 µM | RPMI-8226 > 50 µM | SF-268 > 50 µM | SF-295 32.7 µM | SF-539 > 50 µM | SK-MEL-28 > 50 µM | SK-MEL-2 > 50 µM | SK-OV-3 > 50 µM | SNB-19 25.6 µM | SNB-75 > 50 µM | SR > 50 µM | SW-620 > 50 µM | TK-10 > 50 µM | U-251 35 µM | UACC-257 > 50 µM | UACC-62 > 50 µM | UO-31 > 50 µM

C/C(=C\CCC1=CC(=O)OC1)CC[C@@H]1[C@H]2C(=O)CC(C)[C@@]3(C)CC[C@]1(C)[C@@]23C (stereo partly drawn)
> 10 µM: HCT-15
inactive: 786-0 > 10 µM | A549 > 10 µM | CAKI-1 > 10 µM | CCRF-CEM > 10 µM | COLO 205 > 10 µM | DU-145 > 10 µM | EKVX > 10 µM | HCC 2998 > 10 µM | HL-60 > 10 µM | HOP-62 > 10 µM | HT-29 > 10 µM | IGROV-1 > 10 µM | K562 > 10 µM | KM12 > 10 µM | LOX IMVI > 10 µM | M14 > 10 µM | MCF7 > 10 µM | MDA-MB-231 > 10 µM | MDA-N > 10 µM | MOLT-4 > 10 µM | Malme-3M > 10 µM | NCI-H23 > 10 µM | OVCAR-8 > 10 µM | PC-3 > 10 µM | RPMI-8226 > 10 µM | RXF 393 > 10 µM | SF-268 > 10 µM | SF-295 > 10 µM | SK-MEL-28 > 10 µM | SK-MEL-5 > 10 µM | SK-OV-3 > 10 µM | SN12C > 10 µM | SNB-75 > 10 µM | SR > 10 µM | SW-620 > 10 µM | T47D > 10 µM | TK-10 > 10 µM | UACC-257 > 10 µM | UACC-62 > 10 µM
